Data reported in ChEMBL document CHEMBL1909046, “DrugMatrix in vitro pharmacology data”.

Legend:
B2 bradykinin receptor = target: T1, B2 bradykinin receptor (Homo sapiens, UniProt P30411); assay type: cell membranes, Membrane; conditions: chem-1; also: in other assays of this panel Not Active means under 50% inhibition at 10 µM
T1 sequence (P30411 whole entry): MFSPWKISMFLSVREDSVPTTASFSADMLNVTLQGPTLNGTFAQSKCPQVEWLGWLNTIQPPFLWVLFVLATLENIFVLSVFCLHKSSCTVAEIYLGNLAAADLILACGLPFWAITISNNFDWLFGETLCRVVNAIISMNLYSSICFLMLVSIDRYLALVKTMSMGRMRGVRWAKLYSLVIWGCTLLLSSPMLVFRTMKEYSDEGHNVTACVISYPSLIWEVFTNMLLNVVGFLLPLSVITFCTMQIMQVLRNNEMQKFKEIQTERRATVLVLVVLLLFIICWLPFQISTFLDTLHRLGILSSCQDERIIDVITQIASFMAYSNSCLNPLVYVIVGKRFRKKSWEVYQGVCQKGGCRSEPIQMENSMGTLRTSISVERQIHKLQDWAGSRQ

Calcitonin receptor = target: T2, Calcitonin receptor (Homo sapiens, UniProt P30988); assay type: cell membranes, Membrane; conditions: t47d; also: in other assays of this panel Not Active means under 50% inhibition at 10 µM
T2 sequence (P30988 whole entry): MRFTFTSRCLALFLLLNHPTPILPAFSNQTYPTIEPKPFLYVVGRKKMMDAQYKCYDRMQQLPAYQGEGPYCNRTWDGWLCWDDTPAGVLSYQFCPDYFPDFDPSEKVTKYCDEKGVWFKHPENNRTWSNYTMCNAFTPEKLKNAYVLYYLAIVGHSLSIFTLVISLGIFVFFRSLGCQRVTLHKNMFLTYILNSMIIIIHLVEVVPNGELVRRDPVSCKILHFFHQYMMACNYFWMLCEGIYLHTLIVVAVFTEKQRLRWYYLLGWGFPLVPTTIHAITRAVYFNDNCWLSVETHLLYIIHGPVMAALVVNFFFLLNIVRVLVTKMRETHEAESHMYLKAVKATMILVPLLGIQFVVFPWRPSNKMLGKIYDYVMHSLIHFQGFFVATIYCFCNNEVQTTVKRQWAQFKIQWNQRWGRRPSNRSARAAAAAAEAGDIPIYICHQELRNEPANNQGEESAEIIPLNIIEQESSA

[1] = target: 5-hydroxytryptamine receptor 2B (Homo sapiens, UniProt P41595); assay type: cell membranes, CHO-K1, Membrane; conditions: cho-k1; also: in other assays of this panel Not Active means under 50% inhibition at 10 µM
Sequence of 5-hydroxytryptamine receptor 2B (P41595 whole entry): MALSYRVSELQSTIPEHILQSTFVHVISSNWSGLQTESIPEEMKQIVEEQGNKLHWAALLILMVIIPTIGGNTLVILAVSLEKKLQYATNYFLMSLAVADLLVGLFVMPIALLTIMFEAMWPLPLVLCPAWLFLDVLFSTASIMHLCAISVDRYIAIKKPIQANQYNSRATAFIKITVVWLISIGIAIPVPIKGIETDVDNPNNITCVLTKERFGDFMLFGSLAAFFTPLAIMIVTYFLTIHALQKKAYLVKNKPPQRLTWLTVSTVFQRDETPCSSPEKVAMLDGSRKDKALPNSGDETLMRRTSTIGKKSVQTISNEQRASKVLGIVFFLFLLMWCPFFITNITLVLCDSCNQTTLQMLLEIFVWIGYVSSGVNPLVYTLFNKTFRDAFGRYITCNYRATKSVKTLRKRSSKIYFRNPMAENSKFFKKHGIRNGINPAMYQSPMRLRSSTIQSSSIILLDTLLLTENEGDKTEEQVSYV

[2] = DRUGMATRIX: Sigma2 radioligand binding (ligand: [3H] Ifenprodil); assay type: cell membranes, Rattus norvegicus, Wistar, Brain, Membrane; conditions: Not Active = under 50% inhibition at 10 µM
[3] = DRUGMATRIX: Calcium Channel Type L, Phenylalkylamine radioligand binding (ligand: [3H] (-)-Desmethoxyverapamil (D-888)); assay type: cell membranes, Rattus norvegicus, Wistar, Brain, Membrane; conditions: Not Active = under 50% inhibition at 10 µM
Carbonic anhydrase 2 = Carbonic anhydrase 2 (Homo sapiens, UniProt P00918); test: DRUGMATRIX: Carbonic Anhydrase II enzyme inhibition (substrate: 4-Nitrophenyl acetate (4-NPA)); assay type: tissue-based, Erythrocyte; conditions: erythrocyte; Not Active = under 50% inhibition at 10 µM
[4] = target: Prostaglandin G/H synthase 1 (Homo sapiens, UniProt P23219); test: biochemical; assay type: tissue-based, Platelet; conditions: platelet;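 also: inhibition of COX-1 enzyme activity, with arachidonic acid supplied as substrate; in other assays of this panel Not Active means under 50% inhibition at 10 µM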
Sequence of Prostaglandin G/H synthase 1 (P23219 whole entry): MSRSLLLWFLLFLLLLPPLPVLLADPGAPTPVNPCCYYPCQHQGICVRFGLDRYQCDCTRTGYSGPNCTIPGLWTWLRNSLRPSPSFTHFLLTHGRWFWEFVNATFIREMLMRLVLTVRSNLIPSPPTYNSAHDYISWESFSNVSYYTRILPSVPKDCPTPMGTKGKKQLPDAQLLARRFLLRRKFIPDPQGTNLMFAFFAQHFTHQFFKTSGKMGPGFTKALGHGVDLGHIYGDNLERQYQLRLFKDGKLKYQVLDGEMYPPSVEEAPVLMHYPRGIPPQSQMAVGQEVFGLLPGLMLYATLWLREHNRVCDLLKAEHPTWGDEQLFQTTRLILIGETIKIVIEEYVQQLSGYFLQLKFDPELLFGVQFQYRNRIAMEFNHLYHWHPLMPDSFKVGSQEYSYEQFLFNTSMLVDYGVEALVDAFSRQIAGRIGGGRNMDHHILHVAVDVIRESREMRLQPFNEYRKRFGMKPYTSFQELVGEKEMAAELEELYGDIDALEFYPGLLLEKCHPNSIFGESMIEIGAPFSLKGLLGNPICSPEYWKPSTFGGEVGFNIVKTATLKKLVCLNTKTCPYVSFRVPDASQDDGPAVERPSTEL

[5] = DRUGMATRIX: Phosphodiesterase PDE4 enzyme inhibition (substrate: [3H]cAMP + cAMP); conditions: u-937; Not Active = under 50% inhibition at 10 µM
[6] = DRUGMATRIX: Potassium Channel [KATP] radioligand binding (ligand: [3H] Glyburide); assay type: cell membranes, Membrane; conditions: hit-t15; Not Active = under 50% inhibition at 10 µM
Interstitial collagenase = target: T3, Interstitial collagenase (Homo sapiens, UniProt P03956); assay type: tissue-based, Rheumatoid synovial fibroblasts
T3 sequence (P03956 whole entry): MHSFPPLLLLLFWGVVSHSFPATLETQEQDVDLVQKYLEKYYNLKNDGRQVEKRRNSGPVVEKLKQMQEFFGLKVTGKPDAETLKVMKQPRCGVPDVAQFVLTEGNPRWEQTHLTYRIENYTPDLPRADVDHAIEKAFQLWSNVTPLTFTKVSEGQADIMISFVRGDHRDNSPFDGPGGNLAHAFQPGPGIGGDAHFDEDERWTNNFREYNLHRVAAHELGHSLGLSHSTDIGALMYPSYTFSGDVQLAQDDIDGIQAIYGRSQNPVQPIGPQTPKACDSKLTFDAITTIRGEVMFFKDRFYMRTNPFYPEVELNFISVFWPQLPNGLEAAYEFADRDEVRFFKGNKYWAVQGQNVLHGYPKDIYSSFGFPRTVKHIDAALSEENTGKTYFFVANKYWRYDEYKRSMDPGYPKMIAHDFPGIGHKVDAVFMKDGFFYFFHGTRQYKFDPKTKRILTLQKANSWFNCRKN

Adenosine receptor A3 = target: T4, Adenosine receptor A3 (Homo sapiens, UniProt P0DMS8); assay type: cell membranes, CHO-K1, Membrane; conditions: cho-k1
T4 sequence (P0DMS8 whole entry): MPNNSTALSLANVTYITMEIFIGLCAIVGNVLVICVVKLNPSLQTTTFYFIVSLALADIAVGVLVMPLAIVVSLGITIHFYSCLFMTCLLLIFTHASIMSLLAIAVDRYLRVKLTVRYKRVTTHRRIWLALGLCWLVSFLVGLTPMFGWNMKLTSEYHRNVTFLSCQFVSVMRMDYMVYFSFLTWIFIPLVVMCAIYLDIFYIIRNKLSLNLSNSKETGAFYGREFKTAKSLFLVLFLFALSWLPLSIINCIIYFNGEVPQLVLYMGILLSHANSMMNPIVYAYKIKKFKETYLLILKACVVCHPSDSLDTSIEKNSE

Estrogen receptor = target: T5, Estrogen receptor (Homo sapiens, UniProt P03372); conditions: sf9; also: in other assays of this panel Not Active means under 50% inhibition at 10 µM
T5 sequence (P03372 whole entry): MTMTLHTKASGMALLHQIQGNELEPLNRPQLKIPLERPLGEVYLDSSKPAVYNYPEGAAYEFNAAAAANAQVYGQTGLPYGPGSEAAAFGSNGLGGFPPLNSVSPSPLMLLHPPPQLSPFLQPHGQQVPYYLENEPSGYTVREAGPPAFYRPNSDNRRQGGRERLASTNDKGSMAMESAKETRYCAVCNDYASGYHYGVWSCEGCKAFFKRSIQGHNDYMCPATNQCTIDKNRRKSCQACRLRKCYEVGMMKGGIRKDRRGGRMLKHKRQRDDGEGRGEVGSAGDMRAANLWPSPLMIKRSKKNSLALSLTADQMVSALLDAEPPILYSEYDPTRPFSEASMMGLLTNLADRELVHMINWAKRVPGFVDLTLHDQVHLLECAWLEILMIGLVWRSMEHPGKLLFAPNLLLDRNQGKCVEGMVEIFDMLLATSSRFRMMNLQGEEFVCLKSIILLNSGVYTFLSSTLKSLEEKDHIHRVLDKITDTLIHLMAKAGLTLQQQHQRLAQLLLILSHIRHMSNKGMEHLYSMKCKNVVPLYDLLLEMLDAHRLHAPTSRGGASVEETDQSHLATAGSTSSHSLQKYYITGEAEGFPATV

| SMILES | IC50 (B2 bradykinin receptor) | IC50 (Calcitonin receptor) | IC50 [1] | IC50 [2] | Ki [2] | IC50 [3] | Ki [3] | IC50 (Carbonic anhydrase 2) | IC50 [4] | IC50 [5] | Ki [5] | IC50 [6] | Ki [6] | IC50 (Interstitial collagenase) | IC50 (Adenosine receptor A3) | IC50 (Estrogen receptor) | IC50 ([3]; read-out: IC50) | Ki ([3]; read-out: Ki) |
| --- | --- | --- | --- | --- | --- | --- | --- | --- | --- | --- | --- | --- | --- | --- | --- | --- | --- | --- |
| Cn1cnc([N+](=O)[O-])c1Sc1ncnc2nc[nH]c12 [AZATHIOPRINE] | Not Active | Not Active | Not Active | Not Active | Not Active | Not Active | Not Active | Not Active | Not Active | Not Active | Not Active | Not Active | Not Active | Not Active | Not Active | Not Active |  |  |
| CCc1cccc2c3c([nH]c12)C(CC)(CC(=O)O)OCC3 (stereo unspecified) [ETODOLAC] | Not Active | Not Active | Not Active | Not Active | Not Active | Not Active | Not Active | Not Active |  | Not Active | Not Active | Not Active | Not Active | Not Active | Not Active | Not Active |  |  |
| CN1C(C(=O)Nc2ccccn2)=C(O)c2ccccc2S1(=O)=O [PIROXICAM] | Not Active | Not Active | Not Active | Not Active | Not Active | Not Active | Not Active | Not Active |  | Not Active | Not Active | Not Active | Not Active | Not Active | Not Active | Not Active |  |  |
| COc1ccc([C@@H]2Sc3ccccc3N(CCN(C)C)C(=O)[C@@H]2OC(C)=O)cc1 [DILTIAZEM] | Not Active | Not Active | Not Active | Not Active | Not Active |  |  | Not Active | Not Active | Not Active | Not Active | Not Active | Not Active | Not Active | Not Active |  | 630 nM | 612 nM |
